Earlier results in US8916356B2, “Measuring thrombin activity in whole blood” (Synapse B.V., priority 2005, dated 2014).

B1: abciximab (antibody, chains of the INN, looked up, V domains shown)
VH: EVQLQQSGTVLARPGASVKMSCEASGYTFTNYWMHWVKQRPGQGLEWIGAIYPGNSDTSYIQKFKGKAKLTAVTSTTSVYMELSSLTNEDSAVYYCTLYDGYYVFAYWGQGTLVTVSA
VL: EIVLTQSPVTLSVTPGDSVSLSCRASRDISNNLHWFQQTSHESPRLLIKYASQSMSGIPSRFSGSGSGTDFTLSINSVETEDFGMYFCQQTNSWPYTFGGGTKLEIK
modifications: Fab
notes: antiplatelet agent

Columns and labels:
[1] = tested on: thrombin generation in platelet rich plasma (or whole blood); conditions: literature refs 13-16
[2] = literature ref 17

Molecule | effect on thrombin generation [1] | effect on venous thrombosis [2]
COC(=O)[C@H](c1ccccc1Cl)N1CCc2sccc2C1 [clopidogrel] | inhibit thrombin generation | –
CC(=O)Oc1ccccc1C(=O)O [aspirin] | inhibit thrombin generation | prevents venous thrombosis
CCCCS(=O)(=O)N[C@@H](Cc1ccc(OCCCCC2CCNCC2)cc1)C(=O)O [MK383] | inhibit thrombin generation | –
B1 | inhibit thrombin generation | –
